The text below walks through data of US20050245466A1, “Use of topoisomerase inhibitors and heat shock protein 90 inhibitors for use in chemotherapy” (THE UNIVERSITY OF LIVERPOOL, priority 2002, published 2005).

Data set [1] deals with E.coli MC4100. The experiment in a line: Agar sensitivity plates, parental strain. The data set is classed as cell-based. The note with it: for zone of inhibition: parental strain MC4100. The method, then:
(§1) 200 μl of an overnight culture of E.coli strains was spread over the surface of a LB plate. The plates were incubated for three hours at 37° C., and the discs (50 μl of drug) placed onto the plates that were then incubated at 37° C. overnight.
(§2) The plates were photographed the following day with Fluor-S™ Quantity 1 program and the results are illustrated in FIG. 18.
(§3) The inhibition of bacterial cell growth was assessed by examining the zones of inhibition around each disc containing the topo II inhibitor.

Data set [2] deals with E.coli JGT11 (htpG null). The experiment in a line: Agar sensitivity plates, htpG null mutant. The data set is classed as cell-based. As for the experimental part:
as §1, §2, §3

A short description of data set [3]: MTD stated with the xenograft dosing. The note with it: CD1 Nude, mouse, in vivo; mice. As for the experimental part: Treatment with test agents was initiated when the mean individual tumour volume exceeded 1,000 mm^3. The mice were dosed at day 11 and day 22—([…] 10 mg/kg, VePesid 5 mg/kg, MTD […] 22 mg/kg (a non toxic form of 17AAG which can be tolerated at much higher doses) MTD VePesid 70 mg/kg.

Data set [4] deals with HtpG (Escherichia coli, UniProt P0A6Z3). The note with it: in vitro; cited from earlier work.
Sequence of HtpG (P0A6Z3 whole entry): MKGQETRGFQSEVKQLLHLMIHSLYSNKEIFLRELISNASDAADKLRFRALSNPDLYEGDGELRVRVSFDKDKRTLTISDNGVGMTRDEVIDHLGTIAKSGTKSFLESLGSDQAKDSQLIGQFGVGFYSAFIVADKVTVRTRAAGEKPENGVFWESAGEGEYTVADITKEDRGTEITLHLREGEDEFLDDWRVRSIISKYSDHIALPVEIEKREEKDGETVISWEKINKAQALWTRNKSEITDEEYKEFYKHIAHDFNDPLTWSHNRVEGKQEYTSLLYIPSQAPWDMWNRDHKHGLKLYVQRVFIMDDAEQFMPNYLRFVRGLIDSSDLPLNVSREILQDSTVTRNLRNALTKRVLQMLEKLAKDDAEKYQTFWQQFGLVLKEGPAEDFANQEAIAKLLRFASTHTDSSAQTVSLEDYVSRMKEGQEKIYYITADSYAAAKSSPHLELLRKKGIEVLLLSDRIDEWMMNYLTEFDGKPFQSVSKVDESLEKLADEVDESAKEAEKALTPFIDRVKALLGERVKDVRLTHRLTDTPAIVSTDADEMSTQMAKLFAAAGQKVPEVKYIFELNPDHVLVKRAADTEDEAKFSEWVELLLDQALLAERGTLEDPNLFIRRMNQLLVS

As to `O=C(O)c1cn(C2CC2)c2cc(N3CCNCC3)c(F)cc2c1=O` [Ciprofloxacin], the “inhibition of growth (zones of inhibition)” value in data set [1] (MC4100, discs in the range of 0.6-0.01 μM) is recorded as “some inhibition of growth”. Further, the zone of inhibition entry in data set [1] (0.025 μM) is “no zone of inhibition”; in data set [1] (0.1 μM) it was “reduced zone of inhibition”. In addition, the “effect on growth versus parental strain (FIG. 18)” value in data set [2] (JGT11, even at concentrations as low as 0.01 μM) is on record as “significantly greater effect”. Moreover, the “inhibition of growth (zones of inhibition) versus MC4100” value in data set [2] (htpG null mutant, discs in the range of 0.6-0.01 μM) is recorded as “increased inhibition”.

Take `COc1cc([C@@H]2c3cc4c(cc3[C@@H](O[C@@H]3O[C@@H]5CO[C@@H](C)O[C@H]5[C@H](O)[C@H]3O)[C@H]3COC(=O)[C@H]23)OCO4)cc(OC)c1O` [VePesid, Etoposide]: the MTD in data set [3] amounted to 70 mg/kg.

Regarding `COC1=C2C[C@@H](C)C[C@H](OC)[C@H](O)[C@@H](C)/C=C(\C)[C@H](OC(N)=O)[C@@H](OC)/C=C\C=C(/C)C(=O)NC(=CC1=O)C2=O` [Geldanamycin], the “activity of HtpG” value in data set [4] is on record as “inhibits”. In data set [3], this molecule displayed an MTD of 22 mg/kg.
